Assay [1] addresses Acetylcholinesterase (AChE) (Electrophorus electricus, UniProt O42275). The assay can be described thus: Ellman's assay, purified enzyme from electric eel. The format is biochemical. For orientation: Ellman's reagent forms a yellow product with free thiols.
In assay [2] the target is Butyrylcholinesterase (BuChE) (Equus caballus, UniProt P81908). The experiment in a line: Ellman's assay, purified enzyme from equine serum. Type of assay: biochemical.

Experimental findings from paper PMC7338734 (Neuroscience Insights, 2020) are described below.

Chain of Acetylcholinesterase (AChE) (O42275 24-633): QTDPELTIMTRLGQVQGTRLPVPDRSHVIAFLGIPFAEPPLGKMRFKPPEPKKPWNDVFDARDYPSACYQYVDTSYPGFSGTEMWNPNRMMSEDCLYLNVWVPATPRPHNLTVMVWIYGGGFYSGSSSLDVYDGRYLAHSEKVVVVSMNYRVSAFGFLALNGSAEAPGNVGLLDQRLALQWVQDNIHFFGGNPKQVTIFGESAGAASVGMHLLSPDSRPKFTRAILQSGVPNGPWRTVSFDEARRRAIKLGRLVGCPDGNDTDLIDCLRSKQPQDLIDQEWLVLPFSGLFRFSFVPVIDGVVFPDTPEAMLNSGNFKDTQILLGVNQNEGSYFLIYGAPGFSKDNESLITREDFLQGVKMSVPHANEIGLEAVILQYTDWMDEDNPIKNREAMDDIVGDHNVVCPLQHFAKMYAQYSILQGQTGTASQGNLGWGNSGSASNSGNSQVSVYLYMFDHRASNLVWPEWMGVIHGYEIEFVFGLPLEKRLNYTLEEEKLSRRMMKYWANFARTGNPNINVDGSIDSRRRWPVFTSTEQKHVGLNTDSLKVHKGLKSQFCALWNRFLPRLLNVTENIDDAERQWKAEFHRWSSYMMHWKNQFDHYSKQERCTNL
Chain of Butyrylcholinesterase (BuChE) (P81908 whole entry): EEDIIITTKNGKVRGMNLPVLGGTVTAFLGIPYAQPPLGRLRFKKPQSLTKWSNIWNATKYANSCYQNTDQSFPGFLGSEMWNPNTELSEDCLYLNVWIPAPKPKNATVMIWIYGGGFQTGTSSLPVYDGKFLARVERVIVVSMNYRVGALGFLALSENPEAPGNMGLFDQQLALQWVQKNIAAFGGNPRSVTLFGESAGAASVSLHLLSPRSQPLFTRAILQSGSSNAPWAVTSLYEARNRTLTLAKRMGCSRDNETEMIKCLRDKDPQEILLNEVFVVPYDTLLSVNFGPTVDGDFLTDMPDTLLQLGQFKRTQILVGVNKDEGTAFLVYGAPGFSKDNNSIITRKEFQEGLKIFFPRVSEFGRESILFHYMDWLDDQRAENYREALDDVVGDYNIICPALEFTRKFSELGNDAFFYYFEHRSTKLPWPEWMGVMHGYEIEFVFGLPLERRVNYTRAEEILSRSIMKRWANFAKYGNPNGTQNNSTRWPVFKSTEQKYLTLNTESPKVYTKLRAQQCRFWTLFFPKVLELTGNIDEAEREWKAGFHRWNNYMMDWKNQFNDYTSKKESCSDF

A word on the IC50: it is the concentration needed to halve the response being measured. Low readings indicate higher potency, high ones lower potency. In the case of `COc1cc2ccc(=O)oc2cc1O` [scopoletin, 6-methoxy-7-hydroxycoumarin], the values for the half-maximal inhibitory concentration (IC50) in assay [1] and in assay [2] were 5.34 µM and 9.11 µM, respectively.
